Assay results taken from US8063077B2, “Factor Xa inhibitors” (Millennium Pharmaceuticals, Inc., priority 2006, dated 2011).

Columns and labels:
[1] = Pharmacokinetics of Compound 10 in dog (IV and PO), plasma by LC/MS/MS; type: in vivo, male beagle dogs; set-up: AUC/D (dose-normalized AUC(0-inf)): unit not given here; details: mean ± SD
Experimental: (§1) For the dog and monkey study, Compound 10 was also used. An IV and PO dose of Compound 10 (1.0 and 5.0 mg/kg, respectively) was prepared. The IV dose was formulated similarly to that used in the rat study (50% PEG300 in water). The PO dose was suspended in 0.5% methylcellulose at a concentration of 1.0 mg/mL with a final pH of approximately 3.50.
(§2) A total of six male Sprague-Dawley rats (n=3/dosing group) from Charles River Laboratories (Hollister, Calif.), three male beagle dogs from Marshall BioResources (North Rose, N.Y.) and three male rhesus monkeys were utilized. […]
(§3) All animals were dosed based on individual weights with a PO gavage volume of 5.0 mL/kg and an IV bolus dose volume of 1.0 mL/kg. […] At collection times, urine volume and water consumption was recorded. […]
(§4) Plasma and urine samples were analyzed for Compound 10 concentration using a liquid chromatography tandem mass spectrometry (LC/MS/MS). […] The peak areas of the m/z 411→250 product ion (Compound 10) were measured against those of the m/z 470→342 product ion (N-(2-(5-chloropyridin-2-ylcarbaomoyl)-4-methoxyphenyl)-4-(N,N-dimethylcarbamimidoyl)-2-fluorobenzamide) in positive ion mode. […]
(§5) Sample Compound 10 concentrations below the lower limit of quantitation (LLQ) were reported as <0.500 ng/mL. […]

[2] = Pharmacokinetics of Compound 10 in rat (IV and PO), plasma and urine by LC/MS/MS; type: in vivo, male Sprague-Dawley rats; set-up: AUC/D (dose-normalized AUC(0-inf)): unit not given here; details: mean ± SD
Experimental: Compound 10 was used in the rat investigation. An intravenous (IV) and oral (PO) dose of Compound 10 (1.0 and 10 mg/kg, respectively) was prepared. The IV dose was solubilized in 50% PEG300 to yield a final concentration of 1.0 mg/mL with a final pH of 5.13. The PO dose was suspended in 0.5% methylcellulose at a concentration of 2.0 mg/mL with a final pH of 2.70.
A total of six male Sprague-Dawley rats (n=3/dosing group) from Charles River Laboratories (Hollister, Calif.), three male beagle dogs from Marshall BioResources (North Rose, N.Y.) and three male rhesus monkeys were utilized. All surgical procedures in rat (femoral and jugular vein catheterizations) were performed 8 days prior to utilization in the study and rats were acclimated in-house 5 days prior to utilization. Dogs were acclimated in-house at least seven days prior to utilization and were returned to the colony at the completion of the study. Monkey studies were conducted by an off-site contract laboratory.
All animals were fasted from the afternoon prior to study initiation to two hours post-dose (approximately 18 hours). Water was provided ad libitum. All animal rooms were on a 12 hour light-dark cycles (6 A.M. to 6 P.M.). On the morning of experimentation, animals were weighed. Rat femoral and jugular (IV only) vein blood lines were exteriorized and attached to access ports. […]
as §3, §4, §5

[3] = Pharmacokinetics of Compound 10 in monkey (IV and PO), plasma by LC/MS/MS; type: in vivo, male rhesus monkeys; set-up: AUC/D (dose-normalized AUC(0-inf)): unit not given here; details: mean ± SD
Experimental: as §1, §2, §3, §4, §5

[4] = biological target: T1, human plasma protein factor Xa (Homo sapiens, UniProt P00742); test: Factor Xa IC50 determination, cleavage of paranitroanilide substrate S-2765; type: biochemical; details: factor Xa 1 nM, S2765 100 μM, Tris buffered saline pH 7.4, 5% DMSO
T1 construct: The human plasma protein factor Xa was purchased from Haematologic Technologies; purchased Haematologic Technologies (Essex Junction, Vt.); host or cells: human plasma
T1 sequence (P00742 235-488 limits assumed): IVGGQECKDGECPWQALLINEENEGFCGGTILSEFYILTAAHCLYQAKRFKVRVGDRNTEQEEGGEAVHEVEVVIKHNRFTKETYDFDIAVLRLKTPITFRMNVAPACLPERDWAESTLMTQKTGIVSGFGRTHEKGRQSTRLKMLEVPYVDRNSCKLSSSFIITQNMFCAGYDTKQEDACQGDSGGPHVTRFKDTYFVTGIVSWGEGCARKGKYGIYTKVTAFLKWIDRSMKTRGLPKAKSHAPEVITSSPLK
T1 sequence (P00742 41-179 partner limits assumed): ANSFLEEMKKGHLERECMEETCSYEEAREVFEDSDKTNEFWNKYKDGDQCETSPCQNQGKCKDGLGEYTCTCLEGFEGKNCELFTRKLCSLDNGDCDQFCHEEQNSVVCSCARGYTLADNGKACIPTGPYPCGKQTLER
In short: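 Human plasma factor Xa (1 nM) was preincubated 5 min at room temperature with inhibitor (0.01 nM to 10 μM) in Tris-buffered saline pH 7.4 with CaCl2, 0.1% BSA and 5% DMSO. Then 100 μM S-2765 was added, and cleavage was followed at 405 nm for 2 min. Initial rates were fitted to a four-parameter curve to obtain IC50.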

Row | SMILES | IC50 [4] | further results
1 | O=C(NCc1cn(-c2ccc(-n3ccccc3=O)cc2)cn1)c1ccc(Cl)s1 [Compound 10, 5-Chloro-N-((1-(4-(2-oxopyridin-1(2H)-yl)phenyl)-1H-imidazol-4-yl)methyl)thiophene-2-carboxamide] | ≤ 100 nM | bioavailability ([1]; male, beagle, plasma, oral 5 mg/kg vs intravenous 1 mg/kg, read-out: F (absolute bioavailability)): 68.5 ± 15.5%; AUC/D (dose-normalized AUC(0-inf)) ([1]; oral, 5 mg/kg, n=3): 1095 ± 295; Dose excreted unchanged in urine ([2]; intravenous, 1 mg/kg, urine to 24 hours post-dose): 0.248 ± 0.019%; bioavailability ([2]; male, Sprague-Dawley, plasma, oral 10 mg/kg vs intravenous 1 mg/kg, read-out: F (absolute bioavailability)): 127 ± 23.1%; AUC/D (dose-normalized AUC(0-inf)) ([2]; oral, 10 mg/kg, n=3): 6859 ± 1249; bioavailability ([3]; male, rhesus, rhesus monkey, plasma, oral 5 mg/kg vs intravenous 1 mg/kg, read-out: F (absolute bioavailability)): 71.6 ± 18.1%; AUC/D (dose-normalized AUC(0-inf)) ([3]; oral, 5 mg/kg, n=3): 8430 ± 3449
2 | O=C(NCc1cn(-c2ccc(-n3cccc(O)c3=O)cc2)cn1)c1ccc(Cl)s1 [Compound 42, 5-chloro-N-((1-(4-(3-hydroxy-2-oxopyridin-1(2H)-yl)phenyl)-1H-imidazol-4-yl)methyl)thiophene-2-carboxamide] | ≤ 100 nM | –
3 | CCN1CCN(c2ccc(-n3cnc(CNC(=O)c4ccc(Cl)s4)c3)cc2)C(=O)C1=O [Compound 60, 5-chloro-N-((1-(4-(4-ethyl-2,3-dioxopiperazin-1-yl)phenyl)-1H-imidazol-4-yl)methyl)thiophene-2-carboxamide] | ≥ 500 nM | –
4 | O=C(NCc1cn(-c2ccc(-n3ccccc3=O)cc2NCCO)cn1)c1ccc(Cl)s1 [Compound 27, 5-Chloro-N-((1-(2-(2-hydroxyethylamino)-4-(2-oxopyridin-1(2H)-yl)phenyl)-1H-imidazol-4-yl)methyl)thiophene-2-carboxamide] | ≤ 100 nM | –
5 | C[S+]([O-])c1nc(CNC(=O)c2ccc(Cl)s2)cn1-c1ccc(-n2cc(F)ccc2=O)cc1 (centres unmarked) [Compound 64, 5-chloro-N-((1-(4-(5-fluoro-2-oxopyridin-1(2H)-yl)phenyl)-2-(methylsulfinyl)-1H-imidazol-4-yl)methyl)thiophene-2-carboxamide] | ≤ 100 nM | –
6 | CSc1nc(CNC(=O)c2ccc(Cl)s2)cn1-c1ccc(-n2ccccc2=O)cc1 [Compound 55, 5-chloro-N-((2-(methylthio)-1-(4-(2-oxopyridin-1(2H)-yl)phenyl)-1H-imidazol-4-yl)methyl)thiophene-2-carboxamide] | ≤ 100 nM | –
7 | O=C(NCc1cn(-c2ccc(-n3cccc(F)c3=O)cc2)cn1)c1ccc(Cl)s1 [Compound 43, 5-chloro-N-((1-(4-(3-fluoro-2-oxopyridin-1(2H)-yl)phenyl)-1H-imidazol-4-yl)methyl)thiophene-2-carboxamide] | ≤ 100 nM | –
8 | COc1ccc(/N=c2\ccccn2-c2ccc(-n3cnc(CNC(=O)c4ccc(Cl)s4)c3)cc2)cc1 [Compound 35, (E)-5-chloro-N-((1-(4-(2-(4-methoxyphenylimino)pyridin-1(2H)-yl)phenyl)-1H-imidazol-4-yl)methyl)thiophene-2-carboxamide] | ≤ 100 nM | –
9 | O=C(NCc1cn(-c2ccc(-n3ccccc3=O)cc2)cn1)c1ccc2[nH]ccc2c1 [Compound 54, N-((1-(4-(2-oxopyridin-1(2H)-yl)phenyl)-1H-imidazol-4-yl)methyl)-1H-indole-5-carboxamide] | ≥ 500 nM | –
10 | Cc1nc(CNC(=O)c2ccc(Cl)s2)cn1-c1ccc(-n2ccccc2=O)cc1 [Compound 62, 5-Chloro-N-((2-methyl-1-(4-(2-oxopyridin-1(2H)-yl)phenyl)-1H-imidazol-4-yl)methyl)thiophene-2-carboxamide] | ≤ 100 nM | –
11 | CC(=O)Nc1ccn(-c2ccc(-n3cnc(CNC(=O)c4ccc(Cl)s4)c3)cc2)c(=O)n1 [Compound 51, N-((1-(4-(4-acetamido-2-oxopyrimidin-1(2H)-yl)phenyl)-1H-imidazol-4-yl)methyl)-5-chlorothiophene-2-carboxamide] | ≤ 100 nM | –
12 | O=C(NCc1cn(-c2ccc(N3CCOCC3=O)cc2)cn1)c1ccc(Cl)s1 [Compound 11, 5-Chloro-N-((1-(4-(3-oxomorpholino)phenyl)-1H-imidazol-4-yl)methyl)thiophene-2-carboxamide] | ≤ 100 nM | –
13 | O=C(NCc1cn(-c2ccc(N3CCCCC3=O)cc2)cn1)c1ccc(Cl)s1 [Compound 52, 5-chloro-N-((1-(4-(2-oxopiperidin-1-yl)phenyl)-1H-imidazol-4-yl)methyl)thiophene-2-carboxamide] | ≤ 100 nM | –
14 | Cn1cc(Cl)cc1C(=O)NCc1cn(-c2ccc(-n3ccccc3=O)cc2)cn1 [Compound 37, 4-chloro-1-methyl-N-((1-(4-(2-oxopyridin-1(2H)-yl)phenyl)-1H-imidazol-4-yl)methyl)-1H-pyrrole-2-carboxamide] | ≥ 500 nM | –
15 | N#C/N=c1\ccccn1-c1ccc(-n2cnc(CNC(=O)c3ccc(Cl)s3)c2)cc1 [Compound 33, (E)-5-chloro-N-((1-(4-(2-(cyanoimino)pyridin-1(2H)-yl)phenyl)-1H-imidazol-4-yl)methyl)thiophene-2-carboxamide] | ≤ 100 nM | –
16 | O=C(NCc1cn(-c2ccc(-n3ccccc3=O)cc2OCCN2CCCCC2)cn1)c1ccc(Cl)s1 [Compound 53, 5-chloro-N-((1-(4-(2-oxopyridin-1(2H)-yl)-2-(2-(piperidin-1-yl)ethoxy)phenyl)-1H-imidazol-4-yl)methyl)thiophene-2-carboxamide] | ≤ 100 nM | –
